A short description of this data set: Chemical stability of liposomal BPD-MA: potency, degradation products and pH of the reconstituted solution on storage. Conditions: cryodesiccated liposome formulation. It is filed as physicochemical. The protocol:
The chemical stability of the constituted dosage form was followed by monitoring the potency, degradation products and pH of the reconstituted solution. The potency of the reconstituted parenteral dosage form was assessed by chromatography with potency calculated on as is basis.

On to “benzoporphyrin derivative monoacid [BPD-MA]”, for which the projected shelf life entry is recorded as “at least two years”. Also, the “period over which potency was maintained” value (room temperature) was “at least nine months”.

Source of the values: US7135193B2, “Liposome compositions of porphyrin photosensitizers” (QLT, Inc., priority 1992, dated 2006).
